Measured values reported in patent US4985447A, “Certain benzoquinones, naphthoquinones and derivatives thereof which exhibit thromboxane A2 synthetase inhibition or receptor antagonism and the like” (Takeda Chemical Industries, Ltd., priority 1986, dated 1991).
Values joined by “and” are separate entries in the source; they are usually repeats but may differ in a detail not shown here. Equal entries are not always repeated.

Tests used:
[1] = Proteinuria improving effect in rat with adriamycin-induced nephrosis; assay type: in vivo, rat (Sprague-Dawley)
Method: Procedure: The experiment was carried out with Sprague-Dawley rat (male, 5 weeks old) according to the method of T. Bertani et al.[(Laboratory Invest.4, 16, (1982)]. Adriamycin was given intravenously at the dose of 7.5 mg/kg and two weeks later urine was collected for 24 hours after water was loaded orally at 10 ml/kg. Total urinary protein and albumin excreted in the urine were determined; rats of which total urinary protein was 20 mg/100g/24 hours or more were chosen for the experiment. The control group received water (vehicle) alone at 10 ml/kg/day, and the Compound No.18 group received the Compound at the dose of 50 mg/kg/day (10 ml/kg, water) once a day for 2 weeks. After 1 week or 2 weeks of treatment with the drug, 24 hour-urine was collected to determine total urinary protein and albumin. Two weeks later blood was taken from the thoracic aorta of the rat under pentobarbital anesthesia (50 mg/kg, intraperitoneal injection) to determine plasma cholesterol level.

[2] = Improving effect on glomerulonephritis in rat; assay type: in vivo, rat (Sprague-Dawley); conditions: for total urinary protein / urinary albumin: 50 mg/kg/day, p.o.
Method: Procedure: Nephritic rat was prepared according to the method of Matsunaga et al.[Folia pharmacol. japon. 78, 491,(1981)]using Sprague-Dawley rat (male, 5 weeks old). That is, the rat was immunized preliminarily by subcutaneous injection of a mixture of 3 mg of rabbit serum albumin (RSA) and an equal volume of Freund's complete adjuvant, and from two weeks after that RSA was given intravenously at the dose of 1 mg/rat three times a week for 8 weeks. Then 24 hour-urine was collected to determine total urinary protein and urinary albumin. Rats of which total urinary protein was 20 mg/100g/24hr or more were chosen for the experiment. The control group received water (vehicle) alone at 10 ml/kg/day, and the Compound No.18 group received the Compound at the dose of 50 mg/kg/day (10 ml/kg, water) once a day for 2 weeks. After 1 week and 2 weeks of treatment, 24 hour-urine was collected to determine total urinary protein and urinary albumin.

[3] = Toxicological study in the rat; assay type: in vivo, rat (male Wistar); design: key to Spleen: Widening of red pulp / Spleen: Congestion (dilatation of sinus) / Spleen: Extramedullary hematopoiesis / Spleen: Atrophy of white pulp / Liver: Parenchymal cell alteration / Kidney: Dilatation of pelvis / Heart: Cardiac cell alteration / Lung: Alteration / Bone marrow: Proliferation of erythroblast: -: negative; +: mild; ++: moderate; +++: severe; conditions: for Adrenals weight / Body weight (B.V.) / Brains weight / Gonads weight / Heart weight / Hypophy. weight / Kidney weight / Liver weight / Lung weight / Spleen weight / Thymus weight / Thyroid weight / Bone marrow: Proliferation of erythroblast / Heart: Cardiac cell alteration / Kidney: Dilatation of pelvis / Liver: Parenchymal cell alteration / Lung: Alteration / Spleen: Atrophy of white pulp / Spleen: Congestion (dilatation of sinus) / Spleen: Extramedullary hematopoiesis / Spleen: Widening of red pulp: 2 weeks; for Adrenals weight / Body weight (B.V.) / Brains weight / Gonads weight / Heart weight / Hypophy. weight / Kidney weight / Liver weight / Lung weight / Spleen weight / Thymus weight / Thyroid weight: mean; for A/G ratio / AI.P / Albumin / Calcium / GOT / GPK / GPT / Glucose / Greatinine / LAP / LDH / Total bilirubin / Total cholesterol / Total protein / Urea nitrogen: mean ± S.D.
Method: Procedure: Five weeks old, male Wistar rats were used. The rats were given the Compound 18 orally once a day for 14 days at doses of 100 and 300 mg/kg/10 ml of water as a suspension with 5% gum arabic. Control rats were given vehicle (10 ml/kg of water) alone. After fasting a night following the final dose of a 2 week treatment, the rats were anesthetized with ethyl ether and the blood was collected into a heparinized syringe from the abdominal aorta and the plasma was separated for the examination of blood chemistry. Blood parameters such as total protein, glucose, calcium, urea nitrogen, creatinine, total cholesterol, total bilirubin, alkaline phosphatase (ALP), leucine aminopeptidase (LAP), lactate dehydrogenase (LDH), glutamic oxaloacetic transaminase (GOT), glutamic pyruvic transaminase (GPT), creatine phosphokinase (CPK), albumin and A/G ratio were analysed by use of auto-analyzer (Hitachi 716). The organs such as liver, kidney, heart, lung, spleen, adrenal glands, thymus, testris, brain and hypophysis were excised and weighed. Some organs (liver, kidney, heart, lung, spleen) were fixed in 10% neutral formalin solution for histological examinations. Bone marrow was fixed as well without weighing. These fixed organs were stained with Hematoxyline-Eosin for histological examinations.

[4] = 50 mg/kg/day, p.o., 1 week after
[5] = 50 mg/kg/day, p.o., 2 weeks after
[6] = 50 mg/kg/day, p.o., before treatment
[7] = 1 week after, *p<0.05 against pretreatment
[8] = 2 weeks after, *p<0.05 against pretreatment
[9] = 100 mg/kg/day, single rats No. 7-10
[10] = 300 mg/kg/day, single rats No. 11-15

CC1=C(C)C(=O)C(Cc2cccnc2)=C(C)C1=O [Compound No. 18]
effect on adriamycin-induced nephrosis (in words) ([1]; 50 mg/kg/day for 2 weeks): improves adriamycin-induced nephrosis
total urinary protein versus pretreatment value (in words) ([1]; 50 mg/kg/day for 2 weeks): neither total urinary protein nor urinary albumin differed from the respective pretreatment values
urinary albumin versus pretreatment value (in words) ([1]; 50 mg/kg/day for 2 weeks): neither total urinary protein nor urinary albumin differed from the respective pretreatment values
total urinary protein [1, 4]: 55 ± 17 mg/100 g/24 hr
urinary albumin [1, 4]: 25 ± 10
total urinary protein [1, 5]: 59 ± 9 mg/100 g/24 hr
urinary albumin [1, 5]: 31 ± 7
serum cholesterol ([1]; 50 mg/kg/day, p.o., 2 weeks after, #p<0.05 against control): 49 ± 4 mg/dL
total urinary protein [1, 6]: 76 ± 28 mg/100 g/24 hr
urinary albumin [1, 6]: 28 ± 14
serum cholesterol level (in words) ([1]; after 2 weeks, 50 mg/kg/day): decreased remarkably
effect on nephritis (in words) ([2]; 50 mg/kg/day for 2 weeks): improves nephritis
total urinary protein compared with control group (in words) ([2]; 50 mg/kg/day for 2 weeks): decreased total urinary protein
urinary albumin compared with control group (in words) ([2]; 50 mg/kg/day for 2 weeks): decreased total urinary protein and urinary albumin
total urinary protein [2, 7]: 37 ± 8 mg/100 g/24 hr
urinary albumin [2, 7]: 17 ± 5
total urinary protein [2, 8]: 48 ± 16 mg/100 g/24 hr
urinary albumin [2, 8]: 24 + 12
total urinary protein ([2]; before treatment): 75 ± 28 mg/100 g/24 hr
urinary albumin ([2]; before treatment): 45 ± 21
Adrenals weight ([3]; 100 mg/kg orally): 47.7 mg
Body weight (B.V.) ([3]; 100 mg/kg orally): 170.3 g
Brains weight ([3]; 100 mg/kg orally): 1.747 g
Gonads weight ([3]; 100 mg/kg orally): 1.906 g
Heart weight ([3]; 100 mg/kg orally): 0.709 g
Hypophy. weight ([3]; 100 mg/kg orally): 8.3 mg
Kidney weight ([3]; 100 mg/kg orally): 1.579 g
Liver weight ([3]; 100 mg/kg orally): 6.347 g
Lung weight ([3]; 100 mg/kg orally): 0.872 g
Spleen weight ([3]; 100 mg/kg orally): 0.673 g
Thymus weight ([3]; 100 mg/kg orally): 0.45 g
Thyroid weight ([3]; 100 mg/kg orally): 11.4 mg
Bone marrow: Proliferation of erythroblast [3, 9]: -
Heart: Cardiac cell alteration [3, 9]: -
Kidney: Dilatation of pelvis [3, 9]: - (2×) and ++ and +
Liver: Parenchymal cell alteration [3, 9]: -
Lung: Alteration [3, 9]: -
Spleen: Atrophy of white pulp [3, 9]: -
Spleen: Congestion (dilatation of sinus) [3, 9]: -
Spleen: Extramedullary hematopoiesis [3, 9]: +
Spleen: Widening of red pulp [3, 9]: -
A/G ratio ([3]; 100 mg/kg/day): 1.65 ± 0.05
AI.P ([3]; 100 mg/kg/day): 194 ± 32 U/I
Albumin ([3]; 100 mg/kg/day): 3.43 ± 0.05 g %
Calcium ([3]; 100 mg/kg/day): 9.84 ± 0.41 mg %
GOT ([3]; 100 mg/kg/day): 57 ± 6 U/I
GPK ([3]; 100 mg/kg/day): 44 ± 5 U/I
GPT ([3]; 100 mg/kg/day): 13 ± 1 U/I
Glucose ([3]; 100 mg/kg/day): 104 ± 11 mg %
Greatinine ([3]; 100 mg/kg/day): 0.5 ± 0.0 mg %
LAP ([3]; 100 mg/kg/day): 20 ± 1 U/I
LDH ([3]; 100 mg/kg/day): 86 ± 22 U/I
Total bilirubin ([3]; 100 mg/kg/day): 0.27 ± 0.03 mg %
Total cholesterol ([3]; 100 mg/kg/day): 47 ± 7 mg %
Total protein ([3]; 100 mg/kg/day): 5.51 ± 0.11 g %
Urea nitrogen ([3]; 100 mg/kg/day): 15.8 ± 0.7 mg %
body weight (in words) ([3]; 300 mg/kg): tended to have a lower body weight, but the change was not significant
splenomegaly (in words) ([3]; 300 mg/kg): one of 5 rats showed a mild splenomegaly
Adrenals weight ([3]; 300 mg/kg orally): 43.0 mg
Body weight (B.V.) ([3]; 300 mg/kg orally): 162.0 g
Brains weight ([3]; 300 mg/kg orally): 1.714 g
Gonads weight ([3]; 300 mg/kg orally): 1.873 g
Heart weight ([3]; 300 mg/kg orally): 0.913 g
Hypophy. weight ([3]; 300 mg/kg orally): 8.1 mg
Kidney weight ([3]; 300 mg/kg orally): 1.508 g
Liver weight ([3]; 300 mg/kg orally): 6.264 g
Lung weight ([3]; 300 mg/kg orally): 0.929 g
Spleen weight ([3]; 300 mg/kg orally): 0.703 g
Thymus weight ([3]; 300 mg/kg orally): 0.447 g
Thyroid weight ([3]; 300 mg/kg orally): 12.0 mg
extramedullary hematopoiesis (in words) ([3]; 300 mg/kg, one of 5 rats): increased extramedullary hematopoiesis
Bone marrow: Proliferation of erythroblast [3, 10]: -
Heart: Cardiac cell alteration [3, 10]: -
Kidney: Dilatation of pelvis [3, 10]: - (4×) and +
Liver: Parenchymal cell alteration [3, 10]: -
Lung: Alteration [3, 10]: -
Spleen: Atrophy of white pulp [3, 10]: - (4×) and +
Spleen: Congestion (dilatation of sinus) [3, 10]: -
Spleen: Extramedullary hematopoiesis [3, 10]: + (4×) and ++
Spleen: Widening of red pulp [3, 10]: - (3×) and + (2×)
A/G ratio ([3]; 300 mg/kg/day): 1.73
AI.P ([3]; 300 mg/kg/day): 149 U/I
Albumin ([3]; 300 mg/kg/day): 3.47 ± 0.13 g %
Calcium ([3]; 300 mg/kg/day): 9.70 ± 0.18 mg %
GOT ([3]; 300 mg/kg/day): 64 ± 9 U/I
GPK ([3]; 300 mg/kg/day): 52 ± 9 U/I
GPT ([3]; 300 mg/kg/day): 14 ± 1 U/I
Glucose ([3]; 300 mg/kg/day): 97 ± 11 mg %
Greatinine ([3]; 300 mg/kg/day): 0.4 ± 0.1 mg %
LAP ([3]; 300 mg/kg/day): 19 ± 1 U/I
LDH ([3]; 300 mg/kg/day): 99 ± 18 U/I
Total bilirubin ([3]; 300 mg/kg/day): 0.28 ± 0.02 mg %
Total cholesterol ([3]; 300 mg/kg/day): 41 ± 14 mg %
Total protein ([3]; 300 mg/kg/day): 5.48 ± 0.20 g %
Urea nitrogen ([3]; 300 mg/kg/day): 14.5 ± 0.6 mg %
blood chemistry (in words) ([3]; 100 and 300 mg/kg): no changes in the blood chemistry
organ weight (in words) ([3]; 100 and 300 mg/kg): no significant changes in any organ weight
histology of the other organs (in words) ([3]; after 2 weeks): The other organs showed no changes
